27 compounds from patent US12428413B2 (CHDI Foundation, Inc., priority 2019, dated 2025) can be followed below.

pIC50: −log10 of the molar value. Where a name gives a salt, the structure may show the parent alone. Read-outs that look alike come from different tables or passages of the source.

Test [1] concerns the target human catalytic domain ROCK II protein (amino acids 5-554) with a N-terminal GST tag (Homo sapiens, UniProt O75116). Briefly: biochemical.
The subject of test [2] is cellular ROCK activity (cofilin phosphorylation at Ser3) in A7r5 rat smooth muscle cells. Kind of test: Cellular ROCK activity: cofilin (Ser3) phosphorylation, In-Cell Western assay. In kind it is cell-based. As to conditions: Rattus norvegicus, 1 hour compound incubation, phospho-cofilin (Ser3), read-out: CELL_IC50. An outline of the steps: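 A7r5 rat smooth muscle cells (3000/well, overnight) exposed to compound for 1 h at 37° C., then formaldehyde-fixed. Phospho-cofilin Ser3 detected by In-Cell Western with 800CW secondary antibody, read at 700 and 800 nm on an Odyssey imager.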

Chain of human catalytic domain ROCK II protein (amino acids 5-554) with a N-terminal GST tag (O75116 5-554): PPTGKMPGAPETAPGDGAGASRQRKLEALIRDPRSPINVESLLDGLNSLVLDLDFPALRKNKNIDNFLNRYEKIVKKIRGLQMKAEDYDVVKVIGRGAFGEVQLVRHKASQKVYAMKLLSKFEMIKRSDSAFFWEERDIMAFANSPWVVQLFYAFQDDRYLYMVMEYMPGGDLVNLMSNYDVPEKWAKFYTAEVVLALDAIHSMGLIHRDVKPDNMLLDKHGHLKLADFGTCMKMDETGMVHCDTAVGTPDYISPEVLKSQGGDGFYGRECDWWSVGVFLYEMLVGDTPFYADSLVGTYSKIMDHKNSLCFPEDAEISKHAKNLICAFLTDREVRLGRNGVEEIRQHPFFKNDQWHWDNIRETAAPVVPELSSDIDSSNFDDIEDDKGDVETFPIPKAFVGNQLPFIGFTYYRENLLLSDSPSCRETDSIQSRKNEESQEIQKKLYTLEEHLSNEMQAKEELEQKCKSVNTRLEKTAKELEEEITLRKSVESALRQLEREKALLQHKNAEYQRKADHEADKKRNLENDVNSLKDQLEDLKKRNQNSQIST

Take `COc1cccc([C@@H](C)NC(=O)N2CCN(c3ccncc3F)CC2)c1F` [Example 18, (R)—N-(1-(2-Fluoro-3-methoxyphenyl)ethyl)-4-(3-fluoropyridin-4-yl)piperazine-1-carboxamide]: the pIC50 is 6.70 in test [1] and 5.59 in test [2] (A7R5, 1 h).

As to `COc1cccc([C@@H](C)NC(=O)N2CCN(c3ccncc3F)C[C@H]2C)c1` [Example 43, (R)-4-(3-Fluoropyridin-4-yl)-N—((R)-1-(3-methoxyphenyl)ethyl)-2-methylpiperazine-1-carboxamide], the pIC50 in test [1] is 8.54; in test [2] (A7R5, 1 h), 8.12.

As for `C[C@@H]1CN(c2ccnc(F)c2)CCN1C(=O)N[C@H](C)c1cccc2c1OCO2` [Example 12, (R)—N—((R)-1-(Benzo[d][1,3]dioxol-4-yl)ethyl)-4-(2-fluoropyridin-4-yl)-2-methylpiperazine-1-carboxamide], the pIC50 in test [1] is 7.94; in test [2] (A7R5, 1 h), 6.70.

As for `O=C(NCc1cccc2ncoc12)N1CCN(c2ccncc2F)CC1` [Example 39, N-(Benzo[d]oxazol-7-ylmethyl)-4-(3-fluoropyridin-4-yl)piperazine-1-carboxamide], the pIC50 in test [1] was 7.26; in test [2] (A7R5, 1 h), 6.25.

In the case of `C[C@@H]1CN(c2ccncc2F)C[C@@H](C)N1C(=O)N[C@H](C)c1cccc2c1CCO2` [Example 96, (2R,6R)—N—((R)-1-(2,3-Dihydrobenzofuran-4-yl)ethyl)-4-(3-fluoropyridin-4-yl)-2,6-dimethylpiperazine-1-carboxamide], the pIC50 was 8.19 in test [1] and 7.46 in test [2] (A7R5, 1 h).

Consider `COc1cccc([C@@H](C)NC(=O)N2[C@H](C)CN(c3ccncc3F)C[C@H]2C)c1` [Example 97, (2R,6R)-4-(3-Fluoropyridin-4-yl)-N—((R)-1-(3-methoxyphenyl)ethyl)-2,6-dimethylpiperazine-1-carboxamide Formate], for which the pIC50 in test [1] was 7.92; in test [2] (A7R5, 1 h) it was 6.94.

Regarding `COc1cccc([C@@H](C)NC(=O)N2CCN(c3ccncc3F)C(=O)C2)c1` [Example 100, (R)-4-(3-Fluoropyridin-4-yl)-N-(1-(3-methoxyphenyl)ethyl)-3-oxopiperazine-1-carboxamide], the pIC50 is 5.67 in test [1] and at most 5.30 in test [2].

Consider `[2H]C([2H])([2H])Oc1cccc([C@@H](C)NC(=O)N2CCN(c3ccncc3F)CC2)c1` [Example 132], for which the pIC50 in test [1] was 8.17; in test [2] (A7R5, 1 h), 6.73.

For `COc1cccc([C@@H](C)NC(=O)N2CCN(c3ccncc3F)[C@H](C)C2)c1` [Example 91, (R)-4-(3-Fluoropyridin-4-yl)-N—((R)-1-(3-methoxyphenyl)ethyl)-3-methylpiperazine-1-carboxamide], the pIC50 was 6.82 in test [1] and 6.11 in test [2] (A7R5, 1 h).

Turning to `CC(NC(=O)N1CCN(c2ccncc2F)CC1)c1c(F)cccc1Cl` (stereo not drawn) [Example 26, N-(1-(2-Chloro-6-fluorophenyl)ethyl)-4-(3-fluoropyridin-4-yl)piperazine-1-carboxamide], the pIC50 in test [1] is 7.18; in test [2] (A7R5, 1 h) it was 5.93.

In the case of `COc1cccc([C@@H](C)NC(=O)N2C[C@@H]3C[C@H]2CN3c2ccncc2F)c1` [Example 99], the pIC50 in test [1] is 5.51; in test [2] (A7R5, 1 h) it was at most 5.30.

Consider `C[C@@H]1CN(c2ccnc(F)c2)CCN1C(=O)NCc1cccc2nn(C)cc12` [Example 11, (R)-4-(2-Fluoropyridin-4-yl)-2-methyl-N-((2-methyl-2H-indazol-4-yl)methyl)piperazine-1-carboxamide], for which the pIC50 was 7.49 in test [1] and 6.39 in test [2] (A7R5, 1 h).

For the compound `Cc1cnc2cccc([C@H](C)NC(=O)N3CCN(c4ccncc4F)C[C@H]3C)n12` [Example 66, (R)-4-(3-Fluoropyridin-4-yl)-2-methyl-N—((S)-1-(3-methylimidazo[1,2-a]pyridin-5-yl)ethyl)piperazine-1-carboxamide], the pIC50 in test [1] is 6.53; in test [2] (A7R5, 1 h) it was 5.90.

`C[C@@H]1CN(c2ccnc(F)c2)CCN1C(=O)N[C@H](C)c1cccc2occc12` [Example 113]: the pIC50 is 8.41 in test [1] and 6.91 in test [2] (A7R5, 1 h).

Turning to `C[C@@H](NC(=O)N1CCN(c2ccnc(F)c2)[C@@H](C)C1)c1cccc2occc12` [Example 119], the pIC50 was 8.00 in test [1] and 6.39 in test [2] (A7R5, 1 h).

As for `C[C@@H]1CN(c2ccncc2F)CCN1C(=O)NCc1cccc(OC(F)F)c1` [Example 139], the pIC50 in test [1] was 8.00; in test [2] (A7R5, 1 h), 6.31.

As for `COc1cccc(CN2C[C@@H]3CN(c4ccncc4F)CCN3C2=O)c1` [Example 86, (S)-7-(3-Fluoropyridin-4-yl)-2-(3-methoxybenzyl)hexahydroimidazo[1,5-a]pyrazin-3(2H)-one], the pIC50 is 5.49 in test [1] and at most 5.30 in test [2] (A7R5, 1 h).

On to `C[C@@H]1CN(c2ccncc2F)CCN1C(=O)NCc1cccc2nn(C)cc12` [Example 78, (R)-4-(3-Fluoropyridin-4-yl)-2-methyl-N-((2-methyl-2H-indazol-4-yl)methyl)piperazine-1-carboxamide], for which the pIC50 in test [1] was 8.38; in test [2] (A7R5, 1 h), 7.46.

For `COc1cccc([C@@H](C)NC(=O)N2CCN(c3ccnc(F)c3)C[C@H]2C)c1` [Example 1, (R)-4-(2-Fluoropyridin-4-yl)-N—((R)-1-(3-methoxyphenyl)ethyl)-2-methylpiperazine-1-carboxamide], the pIC50 in test [1] was 8.19; in test [2] (A7R5, 1 h), 6.91.

For `COc1cccc(CNC(=O)N2CCN(c3ccnc(F)c3)C[C@H]2C)c1` [Example 107], the pIC50 in test [1] is 7.37; in test [2] (A7R5, 1 h), 5.97.

For the compound `O=C(NCc1ccccc1Cl)N1CCN(c2ccncc2F)CC1` [Example 130], the pIC50 in test [1] is 6.91; in test [2] (A7R5, 1 h), 5.78.

`C[C@@H]1CN(c2ccncc2F)CCN1C(=O)N[C@H](C)c1ccc(F)cc1Cl` [Example 50, (R)—N—((R)-1-(2-Chloro-4-fluorophenyl)ethyl)-4-(3-fluoropyridin-4-yl)-2-methylpiperazine-1-carboxamide]: the pIC50 is 8.11 in test [1] and 6.73 in test [2] (A7R5, 1 h).

With `COc1cccc(CNC(=O)N2[C@H](C)CN(c3ccncc3F)C[C@H]2C)c1` [Example 95, (2R,6R)-4-(3-Fluoropyridin-4-yl)-N-(3-methoxybenzyl)-2,6-dimethylpiperazine-1-carboxamide], the pIC50 in test [1] was 7.42; in test [2] (A7R5, 1 h), 5.94.

Turning to `C[C@@H]1CN(c2ccncc2F)CCN1C(=O)N[C@H](C)c1cccc2c1OCO2` [Example 68, (R)—N—((R)-1-(Benzo[d][1,3]dioxol-4-yl)ethyl)-4-(3-fluoropyridin-4-yl)-2-methylpiperazine-1-carboxamide], the pIC50 in test [1] was 8.38; in test [2] (A7R5, 1 h), 7.77.

As to `C[C@@H]1CN(C(=O)N[C@H](C)c2ccccc2Cl)CCN1c1ccnc(F)c1` [Example 13, (R)—N—((R)-1-(2-Chlorophenyl)ethyl)-4-(2-fluoropyridin-4-yl)-3-methylpiperazine-1-carboxamide], the pIC50 in test [1] was 5.32; in test [2] (A7R5, 1 h) it was at most 5.30.

On to `C[C@@H](NC(=O)N1CCN(c2ccncc2F)[C@@H](C)C1)c1ccccc1Cl` [Example 146], for which the pIC50 was 6.96 in test [1] and 5.68 in test [2] (A7R5, 1 h).

As to `C[C@@H](NC(=O)N1CCN(c2ccncc2F)[C@@H](C)C1)c1cccc2c1CCO2` [Example 147], the pIC50 in test [1] was 8.49; in test [2] (A7R5, 1 h), 7.64.
